For this test, the target named is T1, Angiotensin II-Rezeptor (Rattus norvegicus, UniProt P25095).
T1 construct: Das Gewebe (Rattenlunge) wird in Tris-Puffer; from tissue; host or cells: rat lung homogenate (membrane pellet, 20,000 x g)
T1 sequence (P25095 1-359): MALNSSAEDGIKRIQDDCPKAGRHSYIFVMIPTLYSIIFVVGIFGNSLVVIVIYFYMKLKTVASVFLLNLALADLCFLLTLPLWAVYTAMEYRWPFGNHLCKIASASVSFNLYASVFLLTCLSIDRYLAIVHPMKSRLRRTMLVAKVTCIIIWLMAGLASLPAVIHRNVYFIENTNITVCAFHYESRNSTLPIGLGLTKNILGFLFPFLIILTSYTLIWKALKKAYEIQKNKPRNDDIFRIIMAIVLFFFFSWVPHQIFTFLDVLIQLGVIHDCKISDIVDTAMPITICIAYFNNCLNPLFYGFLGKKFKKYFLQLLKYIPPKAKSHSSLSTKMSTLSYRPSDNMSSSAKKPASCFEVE
The test is described as follows: Angiotensin II receptor binding: displacement of [125I]-angiotensin II in rat lung homogenate. More on the design: species or system Ratte. As to conditions: rat lung (Rattenlunge) homogenate, 50 pM [125I]-Angiotensin II, 60 min at 37°C, IC50 from dose-response curve; read-out: IC₅₀. The protocol:
Methodenbeschreibung Angiotensin II-Rezeptorbindung
Das Gewebe (Rattenlunge) wird in Tris-Puffer (50 mMol Tris, 150 mMol NaCl, 5 mMol EDTA, pH 7.40) homogenisiert und zweimal je 20 Min. bei 20.000 x g zentrifugiert. Das endgültige Pellet wird in Inkubations-Puffer (50 mMol Tris, 5 mMol MgCl₂, 0,2 % BSA, pH 7,40) 1:75, bezogen auf das Feuchtgewicht des Gewebes, resuspendiert. Je 0,1 ml Homogenat wird für 60 Min. bei 37°C mit 50 pM [125^I]-Angiotensin II (NEN, Dreieich, FRG) und steigenden Konzentrationen der Testsubstanz in einem Gesamtvolumen von 0,25 ml inkubiert. Die Inkubation wird durch rasche Filtration durch Glasfiber-Filtermatten beendet. Die Filter werden je 4 ml eiskaltem Puffer (25 mMol Tris, 2.5 mMol MgCl₂, 0,1 % BSA, pH 7,40) gewaschen. Die gebundene Radioaktivität wird in einem Gamma-Counter ermittelt. Aus der Dosis-Wirkungskurve wird der entsprechende IC₅₀-Wert ermittelt.
For orientation: Displacement assays read how much labelled ligand stays bound in the presence of the test substance.
Turning to `CCc1nc2c(C)cc(-c3nc4cc(F)ccc4n3C)cc2n1Cc1ccc(-c2ccccc2C(=O)O)cc1` [Substanz A, 4'-[(2-Ethyl-4-methyl-6-(1-methyl-5-fluor-benzimidazol-2-yl)-benzimidazol-1-yl)-methyl]-biphenyl-2-carbonsäure], the IC50 was determined as 7.4 nM.

`CCCc1nc2c(C)cc(N3CCCCS3(=O)=O)cc2n1Cc1ccc(-c2ccccc2C(=O)O)cc1` [Substanz B, 4'-[(2-n-Propyl-4-methyl-6-(butansultam-1-yl)-benzimidazol-1-yl)-methyl]-biphenyl-2-carbonsäure]: the IC50 came out at 0.9 nM.

As for `Cc1cc(-c2cn3ccccc3n2)cc2c1nc(C1CC1)n2Cc1ccc(-c2ccccc2C(=O)O)cc1` [Substanz C, 4'-[(2-Cyclopropyl-4-methyl-6-(imidazo[1,2-a]pyridin-2-yl)-benzimidazol-1-yl)-methyl]-biphenyl-2-carbonsäure], the IC50 came out at 1.7 nM.

Regarding `Cc1cc(-c2cn3c(n2)CCCC3)cc2c1nc(C1CC1)n2Cc1ccc(-c2ccccc2C(=O)O)cc1` [Substanz D, 4'-[(2-Cyclopropyl-4-methyl-6-(5,6,7,8-tetrahydro-imidazo[1,2-a]pyridin-2-yl)-benzimidazol-1-yl)-methyl]-biphenyl-2-carbonsäure], the IC50 amounted to 1.3 nM.

Consider `CCOc1nc2c(C)cc(-c3nc4ccccc4n3C)cc2n1Cc1ccc(-c2ccccc2-c2nnn[nH]2)cc1` [Substanz E, 4'-[(2-Ethoxy-4-methyl-6-(1-methyl-benzimidazol-2-yl)-benzimidazol-1-yl)-methyl]-2-(1H-tetrazol-5-yl)-biphenyl], for which the IC50 came to 3.3 nM.

These data come from patent EP0581166A1, “Benzimidazoles, process for their preparation and their use as angiotensin-II antagonists” (Dr. Karl Thomae GmbH, priority 1992, dated 1994).
